IC50 data for 30 compounds are collected here from patent publication US10954216B2, “BMP-signal-inhibiting compound” (RIKEN, priority 2016, dated 2021).

The subject of the assay is BMP signal in MDA-231-D-BREFluc/Rluc cells. Description: BMP signal inhibitory effect (AlphaScreen SureFire SMAD1 p-Ser463/465, BMP-6 stimulation). The format is cell-based. On the procedure: BMP Signal Inhibitory Effect
A BMP signal inhibitory activity of a compound of the present invention was evaluated according to the following method.
MDA-231-D-BREFluc/Rluc cells prepared according to the method described in Y. Katsuno et al., Oncogene, 27, 6322 (2008) were incubated at 37° C. for 2 hours together with test compounds, and BMP-6 (commercially available from R&D System, 507-BM-020) was then added thereto, and the mixture was additionally incubated at 37° C. for 30 minutes. A Lysis Buffer and Acceptor mix of AlphaScreen SureFire SMAD1 (p-Ser463/465) assay kit (commercially available from Perkin Elmer, TGRSM1S10K) were sequentially added thereto, the mixture was incubated at room temperature for 2 hours, and AlphaScreen Protein A kit (commercially available from Perkin Elmer, 6760617) was then added thereto, and standard AlphaScreen settings of Alpha Technology—compatible plate reader (commercially available from Perkin Elmer, EnSpire) was used for measurement.
In general terms: In Alpha technology, singlet oxygen from a donor bead excites a nearby acceptor bead.

[1] abbreviates: BMP-6 stimulated MDA-231-D-BREFluc/Rluc cells, phospho-SMAD1 AlphaScreen, read-out: IC50.

Each structure is given as a SMILES string. Read-outs that look alike come from different tables or passages of the source.

Broadly, the IC50 is the concentration needed to halve the response being measured. With `CCn1cc(-c2ccnc(Nc3ccc4c(c3)CN(CC(C)(C)O)CC4)n2)c(-c2cccnc2)n1` [Example 106, 1-(7-((4-(1-Ethyl-3-(pyridin-3-yl)-1H-pyrazol-4-yl)pyrimidin-2-yl)amino)-3,4-dihydroisoquinolin-2(1H)-yl)-2-methylpropan-2-ol], the IC50 under setting [1] is 3.5 nM.

As for `CCn1cc(-c2ccnc(Nc3ccc(OC4CNC4)cc3)n2)c(-c2cccnc2)n1` [Example 145, N-(4-(Azetidin-3-yloxy)phenyl)-4-(1-ethyl-3-(pyridin-3-yl)-1H-pyrazol-4-yl)pyrimidin-2-amine], the IC50 under setting [1] is 16.4 nM.

On to `CCn1cc(-c2ccnc(Nc3ccc4c(c3)CCN(CC3CCCO3)C4)n2)c(-c2cccnc2)n1` (stereo not drawn) [Example 89, N-(4-(1-Ethyl-3-(pyridin-3-yl)-1H-pyrazol-4-yl)pyrimidin-2-yl)-2-((tetrahydrofuran-2-yl)methyl)-1,2,3,4-tetrahydroisoquinolin-6-amine], for which the IC50 under setting [1] worked out at 5.7 nM.

For the compound `CCn1cc(-c2ccnc(Nc3ccc(N4CCN(CC(N)=O)CC4)cc3)n2)c(-c2cccnc2)n1` [Example 87, 2-(4-(4-((4-(1-Ethyl-3-(pyridin-3-yl)-1H-pyrazol-4-yl)pyrimidin-2-yl)amino)phenyl)piperazin-1-yl)acetamide], the IC50 under setting [1] was determined as 29.7 nM.

On to `COCCN1CCN(c2ccc(Nc3nccc(-c4cn(Cc5ccccc5C#N)nc4-c4cccnc4)n3)cc2)CC1` [Example 82], for which, under setting [1], the IC50 amounted to 18.4 nM.

With `COCCn1cc(-c2ccnc(Nc3ccc4c(c3)CCN(C)C4)n2)c(-c2cccnc2)n1` [Example 64, N-(4-(1-(2-Methoxyethyl)-3-(pyridin-3-yl)-1H-pyrazol-4-yl)pyrimidin-2-yl)-2-methyl-1,2,3,4-tetrahydroisoquinolin-6-amine], under setting [1], the IC50 is 4 nM.

Turning to `CN1Cc2ccc(Nc3nccc(-c4cn(CC(C)(C)O)nc4-c4cccnc4)n3)cc2C1` [Example 63, 2-Methyl-1-(4-(2-((2-methylisoindolin-5-yl)amino)pyrimidin-4-yl)-3-(pyridin-3-yl)-1H-pyrazol-1-yl)propan-2-ol], the IC50 under setting [1] stood at 3.9 nM.

Turning to `CCn1cc(-c2ccnc(Nc3ccc4c(c3)OCCN(CCOC)C4)n2)c(-c2cccnc2)n1` [Example 91, N-(4-(l-Ethyl-3-(pyridin-3-yl)-1H-pyrazol-4-yl)pyrimidin-2-yl)-4-(2-methoxyethyl)-2,3,4,5-tetrahydrobenzo[f][1,4] oxazepin-8-amine], the IC50 under setting [1] is 21.3 nM.

In the case of `CCn1cc(-c2ccnc(Nc3ccc(C(C)=O)cc3)n2)c(-c2cccnc2)n1` [Example 6, 1-(4-((4-(1-Ethyl-3-(pyridin-3-yl)-1H-pyrazol-4-yl)pyrimidin-2-yl)amino)phenyl) ethan-1-one], the IC50 under setting [1] worked out at 29.2 nM.

`CCn1cc(-c2ccnc(Nc3cccc(C(=O)N4CCN(C(C)C)CC4)c3)n2)c(-c2cccnc2)n1` [Example 122, (3-((4-(1-Ethyl-3-(pyridin-3-yl)-1H-pyrazol-4-yl)pyrimidin-2-yl)amino)phenyl)(4-isopropylpiperazin-1-yl)methanone]: the IC50 under setting [1] came out at 23.6 nM.

As to `CCn1cc(-c2ccnc(Nc3ccc(N4CC5CCC(C4)N5CCOC)cc3)n2)c(-c2cccnc2)n1` [Example 86, 4-(1-Ethyl-3-(pyridin-3-yl)-1H-pyrazol-4-yl)-N-(4-(8-(2-methoxyethyl)-3,8-diazabicyclo[3.2.1]octan-3-yl)phenyl)pyrimidin-2-amine], it took 12.9 nM to reach half-maximal inhibition (IC50).

With `CCn1cc(-c2ccnc(Nc3ccc(C4CCCN(CCOC)C4)cc3)n2)c(-c2cccnc2)n1` (stereo not drawn) [Example 100, 4-(1-Ethyl-3-(pyridin-3-yl)-1H-pyrazol-4-yl)-N-(4-(1-(2-methoxyethyl)piperidin-3-yl)phenyl)pyrimidin-2-amine], under setting [1], the IC50 came to 18.6 nM.

For `CCn1cc(-c2ccnc(Nc3ccc4c(c3)CCN(CCOC)CC4)n2)c(-c2cccnc2)n1` [Example 93, N-(4-(1-Ethyl-3-(pyridin-3-yl)-1H-pyrazol-4-yl)pyrimidin-2-yl)-3-(2-methoxyethyl)-2,3,4,5-tetrahydro-1H-benzo [d] azepin-7-amine], the IC50 under setting [1] came out at 3.8 nM.

Turning to `CCn1cc(-c2ccnc(Nc3ccc(C4CC5CCC(C4)N5CCOC)cc3)n2)c(-c2cccnc2)n1` (stereo not drawn) [Example 85, 4-(1-Ethyl-3-(pyridin-3-yl)-1H-pyrazol-4-yl)-N-(4-(8-(2-methoxyethyl)-8-azabicyclo [3.2.1]octan-3-yl)phenyl)pyrimidin-2-amine], the IC50 was 7.3 nM.

Turning to `COCCn1cc(-c2ccnc(Nc3ccc(N4CCN(CC5CCCN5C)CC4)cc3)n2)c(-c2cccnc2)n1` (stereo not drawn) [Example 80, 4-(1-(2-Methoxyethyl)-3-(pyridin-3-yl)-1H-pyrazol-4-yl)-N-(4-(4-((1-methylpyrrolidin-2-yl)methyl)piperazin-1-yl)phenyl)pyrimidin-2-amine], the IC50 under setting [1] worked out at 26.7 nM.

As to `COCCN1Cc2ccc(Nc3nccc(-c4cn(CCOC)nc4-c4cccnc4)n3)cc2C1` [Example 62, 2-(2-Methoxyethyl)-N-(4-(1-(2-methoxyethyl)-3-(pyridin-3-yl)-1H-pyrazol-4-yl)pyrimidin-2-yl)isoindolin-5-amine], under setting [1], the IC50 amounted to 10 nM.

For `CCn1cc(-c2ccnc(Nc3ccc(-n4nc(C)nc4C)cc3)n2)c(-c2cccnc2)n1` [Example 39, N-(4-(3,5-dimethyl-1H-1,2,4-triazol-1-yl)phenyl)-4-(1-ethyl-3-(pyridin-3-yl)-1H-pyrazol-4-yl)pyrimidin-2-amine], the IC50 under setting [1] came out at 11.2 nM.

Turning to `c1cncc(Cn2cc(-c3ccnc(Nc4ccc(N5CCNCC5)cc4)n3)c(-c3cccnc3)n2)c1` [Example 141, N-(4-(Piperazin-1-yl)phenyl)-4-(3-(pyr-3-yl)-1-(pyridin-3-ylmethyl)-1H-pyrazol-4-yl)pyrimidin-2-amine], the IC50 under setting [1] stood at 55.2 nM.

Take `CCn1cc(-c2ccnc(Nc3ccc(N4CCNCC4)c(C)c3)n2)c(-c2cccnc2)n1` [Example 154, 4-(1-Ethyl-3-(pyridin-3-yl)-1H-pyrazol-4-yl)-N-(3-methyl-4-(piperazin-1-yl)phenyl)pyrimidin-2-amine]: under setting [1], the IC50 is 7 nM.

Regarding `CCn1cc(-c2ccnc(Nc3ccc(CCN4CCN(C)CC4)cc3)n2)c(-c2cccnc2)n1` [Example 112, 4-(1-ethyl-3-(pyridin-3-yl)-1H-pyrazol-4-yl)-N-(4-(2-(4-methylpiperazin-1-yl)ethyl)phenyl)pyrimidin-2-amine], under setting [1], the IC50 turned out to be 11.7 nM.

Regarding `COCCn1cc(-c2ccnc(Nc3ccc4c(c3)CN(C)C4)n2)c(-c2cccnc2)n1` [Example 60, N-(4-(1-(2-methoxyethyl)-3-(pyridin-3-yl)-1H-pyrazol-4-yl)pyrimidin-2-yl)-2-methylisoindolin-5-amine], the IC50 under setting [1] came to 6.4 nM.

Turning to `CCn1cc(-c2ccnc(Nc3ccc4c(c3)OCCN(C)C4)n2)c(-c2cccnc2)n1` [Example 67, N-(4-(1-ethyl-3-(pyridin-3-yl)-1H-pyrazol-4-yl)pyrimidin-2-yl)-4-methyl-2,3,4,5-tetrahydrobenzo[f][1,4]oxazepin-8-amine], the IC50 under setting [1] was determined as 5.3 nM.

Take `CCn1cc(-c2ccnc(Nc3ccc(OC4CN(CCOC)C4)cc3)n2)c(-c2cccnc2)n1` [Example 92, 4-(1-Ethyl-3-(pyridin-3-yl)-1H-pyrazol-4-yl)-N-(4-((1-(2-methoxyethyl)azetidin-3-yl)oxy)phenyl) pyrimidin-2-amine]: the IC50 under setting [1] came out at 11.9 nM.

In the case of `CCn1cc(-c2ccnc(Nc3ccc(N4CCN(CCOC)CC4)c(F)c3)n2)c(-c2cccnc2)n1` [Example 18, 4-(1-Ethyl-3-(pyridin-3-yl)-1H-pyrazol-4-yl)-N-(3-fluoro-4-(4-(2-methoxyethyl)piperazin-1-yl)phenyl)pyrimidin-2-amine], the IC50 under setting [1] is 30.8 nM.

As to `CCn1cc(-c2ccnc(Nc3ccc(N4CCN(C(=O)CO)CC4)cc3)n2)c(-c2cccnc2)n1` [Example 174, 1-(4-(4-((4-(1-ethyl-3-(pyridin-3-yl)-1H-pyrazol-4-yl)pyrimidin-2-yl)amino)phenyl)piperazin-1-yl)-2-hydroxyethan-1-one], under setting [1], the IC50 turned out to be 37 nM.

As to `CCn1cc(-c2ccnc(Nc3ccc(C4CCN(C)CC4)c(F)c3)n2)c(-c2cccnc2)n1` [Example 45, 4-(1-ethyl-3-(pyridin-3-yl)-1H-pyrazol-4-yl)-N-(3-fluoro-4-(1-methylpiperidin-4-yl)phenyl)pyrimidin-2-amine], the IC50 under setting [1] was determined as 12.1 nM.

For the compound `COCC(O)CN1CCN(c2ccc(Nc3nccc(-c4cn(C5COC5)nc4-c4cccnc4)n3)cc2)CC1` (stereo not drawn) [Example 110, 1-Methoxy-3-(4-(4-((4-(1-(oxetan-3-yl)-3-(pyridin-3-yl)-1H-pyrazol-4-yl)pyrimidin-2-yl)amino)phenyl)piperazin-1-yl)propan-2-ol], under setting [1], the IC50 came to 32.8 nM.

For `CCn1cc(-c2ccnc(Nc3ccc(-c4cnco4)cc3)n2)c(-c2cccnc2)n1` [Example 70, 4-(1-ethyl-3-(pyridin-3-yl)-1H-pyrazol-4-yl)-N-(4-(oxazol-5-yl)phenyl)pyrimidin-2-amine], the IC50 under setting [1] was 33.6 nM.

Turning to `CCn1cc(-c2ccnc(Nc3cccc(N4CCN(C)CC4)c3)n2)c(-c2cccnc2)n1` [Example 34, 4-(1-ethyl-3-(pyridin-3-yl)-1H-pyrazol-4-yl)-N-(3-(4-methylpiperazin-1-yl)phenyl)pyrimidin-2-amine], under setting [1], the IC50 is 17.3 nM.

For the compound `CN1CCCC1CN1CCN(c2ccc(Nc3nccc(-c4cn(C5COC5)nc4-c4cccnc4)n3)cc2)CC1` (stereo not drawn) [Example 79, N-(4-(4-((1-Methylpyrrolidin-2-yl)methyl)piperazin-1-yl)phenyl)-4-(1-(oxetan-3-yl)-3-(pyridin-3-yl)-1H-pyrazol-4-yl)pyrimidin-2-amine], the IC50 under setting [1] is 35.7 nM.
